B1: BMP-4: member of the BMPs family of proteins that signals through ALK3 and ALK6; SEQ ID NO:3 (protein, listed as Homo sapiens)
chain: SPKHHSQRARKKNKNCRRHSLYVDFSDVGWNDWIVAPPGYQAFYCHGDCPFPLADHLNSTNHAIVQTLVNSVNSSIPKACCVPTELSAISMLYLDEYDKVVLKNYQEMVVEGCGCR
modifications: fragment of BMP-4

Test system: hNEPT
Experiment: C-peptide content (ELISA, normalised to DNA) of hNEPT
Assay type: cell-based, human
Protocol: hNEPT culture: Human islets were isolated at the DRI's cGMP facility following methods already described54, and hNEPT samples (2-4 ml) were obtained as an isolation byproduct. The cells were washed and seeded on tissue culture-treated plates in FBS- and trypsin inhibitor-supplemented RPMI 1640 medium (Gibco-Life Technologies, Grand Island, N.Y.). After 48 h, floating cells were removed with fresh medium replacement. The following day, cultures were either treated with 100 ng/ml BMP-7 (ProSpec-Tany TechnoGene; Ness Ziona, Israel) or remained in the starting medium as controls. Cells were allowed to grow 4-5 days and then the serum-containing medium was replaced by serum-free Advanced RPMI 1640 (Gibco-Life Technologies, Grand Island, N.Y.). Four to five days later the cells were either subjected to static incubation to evaluate their ability to respond to changing glucose concentration or collected for further assessments (such as C-peptide content, immunohistochemistry or cellular composition) or transplantation.
Glucose-stimulated insulin release (GSIR) and total insulin determination: GSIR was performed in six-well plate cultures. BMP-7-treated samples and untreated controls were washed twice with DMEM medium containing 2.5 mM glucose (Low glucose medium or L-medium). Upon addition of 2 ml of the same medium, the cells were cultured for 1 h at 37° C. to bring their insulin secretion to baseline. After 2 more washes, 1 ml of L-medium was added and the cells were returned to the incubator for 1 h. At the end of incubation period, the medium was collected and the cells exposed for 1 h to 1 ml of 20 mM glucose DMEM medium (high glucose medium or H-medium). After the collection of the H-medium supernatant, the cells were washed three times with L-medium and cultured again in low glucose conditions for 1 h. As before, supernatant was collected at the end of the incubation period. The second low glucose incubation is necessary to confirm that the cells are responding to glucose concentration changes in a physiological manner and not dumping insulin. After the last incubation, the cells were collected, washed in PBS and lysed with 1 ml of T-Per (Thermo Scientific, Rockford, Ill.). The lysates and the supernatants from GSIR test were evaluated with ELISA for C-peptide content (Mercodia, Uppsala, Sweden) following manufacturer's instructions. DNA content of the lysates was used to normalize the results (Pico-Green dsDNA Assay Kit, Life Technologies-Molecular Probes, Grand Island, N.Y.).

Molecule | reduction of the BMP-7-mediated induction of C-peptide (dorsomorphin added to BMP-7, n=4) | C-peptide production induction vs. t=0 (BMP-4 vs BMP-7 comparison, n=6, P=0.43)
c1cc(-c2cnn3cc(-c4ccc(OCCN5CCCCC5)cc4)cnc23)ccn1 [dorsomorphin, reference compound] | ~3 fold | 
B1 |  | 198±62.8 fold
